Test results from patent US20240366582A1, “TREATMENT OF RAYNAUD'S DISEASE” (Aisa Pharma, Inc., priority 2020, published 2024).

What was measured:
[1] = tested on: Raynaud's Phenomenon (RP) attacks in participants with SSc-RP; test: Average duration of weekly RP attacks (symptomatic / all attacks), patient diary, Phase 2a Part A; assay type: in vivo, human; conditions: for Average Duration of Weekly RP Attacks (All Attacks), Baseline, Mean / Average Duration of Weekly RP Attacks (All Attacks), Baseline, Median / Average Duration of Weekly RP Attacks (All Attacks), Average Duration, Mean / Average Duration of Weekly RP Attacks (All Attacks), Average Duration, Median: ITT Population-Part A; for Average Duration of Weekly RP Attacks (All Attacks), Baseline, Mean / Average Duration of Weekly RP Attacks (All Attacks), Baseline, Median: last 7 days of screening period, before dosing; for Average Duration of Weekly RP Attacks (All Attacks), Average Duration, Mean / Average Duration of Weekly RP Attacks (All Attacks), Average Duration, Median: last 7 days of the dosing period
Excerpt: (§1) The Sponsor-developed participant-informed E-Diary has been and will be used in this study to record data. Participants have been or will be required to keep and fill the E-Diary daily as delineated in the SoAs ((FIG. 2 and FIG. 3A and/or FIG. 3B). • The relevant metrics measured by this tool daily are: • Study medication • SSc-RP symptoms (Reporting an attack including duration of attack) • Severity of the attack considering all symptoms of the attack e.g. tingling, numbness, pain, color changes (VAS 0-10 cm scale) • Participant's location at the time of the attack (inside home/outside home) • Selecting symptoms experienced during the attack (tingling, numbness, pain, color changes, other) • Pain rating during the attack (11-point Likert scale) • The RCS based on how much difficulty participants had with Raynaud's today, how many attacks the participant had, and how long they lasted. Participants will also be asked to consider how much pain, numbness, or other symptoms the Raynaud's caused in fingers (including painful sores), and how much the Raynaud's alone affected the use of hands today (VAS 0-10 cm scale). • The relevant metrics measured by this tool at the in-clinic visit (once in a Dosing Period) are: • Digital ulcer severity (VAS 0-10 cm scale)—Applicable only if participant has digital ulcers. • Scleroderma Health Assessment Questionnaire which includes Raynaud's VAS measuring participant quality of life over the past • Note: Digital ulcer severity (VAS 0-10 cm scale) and SHAQ scale can also be done on paper in-clinic, if necessary. Also, external temperature will be a feed into the E-Diary database based on participant's location.
The absolute change in average duration of weekly RP attacks from baseline to the end of each dosing period was and will be a secondary outcome variable. The sponsor-developed participant-informed diary was and will be used to record data. Average duration of weekly RP attacks is defined as the total duration of RP attacks divided by total number of RP attacks within the last 7 days of each dosing period. Total duration of RP attacks during the last 7 days of screening period divided by the total number of RP attacks will be used as baseline for the analysis of all periods. The variable will be calculated similar to frequency data as before.
The following data was actually obtained in accordance with the protocol and plan delineated in Examples 1 and 2. The accompanying data involved 11 patients out of the planned 76 patient study. The study was done in patients with scleroderma (systemic sclerosis) who had relatively frequent Raynaud symptoms as they needed to average at least one attack per day during a screening period of up to two weeks. In this first phase of this double-blind placebo-controlled, prospective randomized study, patients were treated in parallel and after meeting study criteria were randomized to receive either placebo, cilnidipine 10 mg daily, cilnidipine 20 mg daily, tadalafil 5 mg daily, cilnidipine 10 mg plus 5 mg of tadalafil, or cilnidipine 20 mg plus 5 mg of tadalafil.

[2] = tested on: Raynaud's Phenomenon (RP) attacks in participants with SSc-RP; test: Frequency of weekly RP attacks (symptomatic attacks / all attacks), patient diary, Phase 2a Part A; assay type: in vivo, human
Protocol: A randomized, placebo-controlled phase 2a study was performed and is in progress to assess the safety and efficacy of cilnidipine (10 mg and 20 mg) alone and in combination with 5 mg tadalafil, in participants with diagnosis of secondary Raynaud's disease.
Part A-Double-blind, Placebo-controlled, Parallel-group, Dose selection, will assess the safety and efficacy of two doses of cilnidipine (10 mg and 20 mg), alone and in combination with tadalafil. A total of 36 participants will be randomized to one of six pre-specified treatment arms. See Example 3 for data obtained in this phase of the study thus far, on 11 participants.
The Sponsor-developed participant-informed E-Diary has been and will be used in this study to record data. […]

[3] = tested on: Raynaud's Phenomenon (RP) attacks in participants with SSc-RP; test: Average severity of weekly RP attacks (VAS 0-10; symptomatic / all attacks), patient diary, Phase 2a Part A; assay type: in vivo, human; conditions: for Average Severity of Weekly Symptomatic RP Attacks, Mean: Pooled Cilnidipine 20 mg and Cilnidipine 20 mg + Tadalafil 5 mg, severity (0-10), ITT Population - Part A
Excerpt: as §1
The absolute change in average severity of weekly RP attacks (VAS 0-10 cm scale) from baseline to the end of each Dosing Period was and will be a secondary outcome variable. The sponsor-developed participant-informed diary will be used to record data. […] The variable will be calculated similar to frequency data as before. […]

[4] = in vivo; cited from earlier work
[5] = biological target: Nav 1.7 sodium channel (Homo sapiens, UniProt Q15858); conditions: see WO 2021/178903; cited from earlier work
Nav 1.7 sodium channel, sequence (Q15858 whole entry): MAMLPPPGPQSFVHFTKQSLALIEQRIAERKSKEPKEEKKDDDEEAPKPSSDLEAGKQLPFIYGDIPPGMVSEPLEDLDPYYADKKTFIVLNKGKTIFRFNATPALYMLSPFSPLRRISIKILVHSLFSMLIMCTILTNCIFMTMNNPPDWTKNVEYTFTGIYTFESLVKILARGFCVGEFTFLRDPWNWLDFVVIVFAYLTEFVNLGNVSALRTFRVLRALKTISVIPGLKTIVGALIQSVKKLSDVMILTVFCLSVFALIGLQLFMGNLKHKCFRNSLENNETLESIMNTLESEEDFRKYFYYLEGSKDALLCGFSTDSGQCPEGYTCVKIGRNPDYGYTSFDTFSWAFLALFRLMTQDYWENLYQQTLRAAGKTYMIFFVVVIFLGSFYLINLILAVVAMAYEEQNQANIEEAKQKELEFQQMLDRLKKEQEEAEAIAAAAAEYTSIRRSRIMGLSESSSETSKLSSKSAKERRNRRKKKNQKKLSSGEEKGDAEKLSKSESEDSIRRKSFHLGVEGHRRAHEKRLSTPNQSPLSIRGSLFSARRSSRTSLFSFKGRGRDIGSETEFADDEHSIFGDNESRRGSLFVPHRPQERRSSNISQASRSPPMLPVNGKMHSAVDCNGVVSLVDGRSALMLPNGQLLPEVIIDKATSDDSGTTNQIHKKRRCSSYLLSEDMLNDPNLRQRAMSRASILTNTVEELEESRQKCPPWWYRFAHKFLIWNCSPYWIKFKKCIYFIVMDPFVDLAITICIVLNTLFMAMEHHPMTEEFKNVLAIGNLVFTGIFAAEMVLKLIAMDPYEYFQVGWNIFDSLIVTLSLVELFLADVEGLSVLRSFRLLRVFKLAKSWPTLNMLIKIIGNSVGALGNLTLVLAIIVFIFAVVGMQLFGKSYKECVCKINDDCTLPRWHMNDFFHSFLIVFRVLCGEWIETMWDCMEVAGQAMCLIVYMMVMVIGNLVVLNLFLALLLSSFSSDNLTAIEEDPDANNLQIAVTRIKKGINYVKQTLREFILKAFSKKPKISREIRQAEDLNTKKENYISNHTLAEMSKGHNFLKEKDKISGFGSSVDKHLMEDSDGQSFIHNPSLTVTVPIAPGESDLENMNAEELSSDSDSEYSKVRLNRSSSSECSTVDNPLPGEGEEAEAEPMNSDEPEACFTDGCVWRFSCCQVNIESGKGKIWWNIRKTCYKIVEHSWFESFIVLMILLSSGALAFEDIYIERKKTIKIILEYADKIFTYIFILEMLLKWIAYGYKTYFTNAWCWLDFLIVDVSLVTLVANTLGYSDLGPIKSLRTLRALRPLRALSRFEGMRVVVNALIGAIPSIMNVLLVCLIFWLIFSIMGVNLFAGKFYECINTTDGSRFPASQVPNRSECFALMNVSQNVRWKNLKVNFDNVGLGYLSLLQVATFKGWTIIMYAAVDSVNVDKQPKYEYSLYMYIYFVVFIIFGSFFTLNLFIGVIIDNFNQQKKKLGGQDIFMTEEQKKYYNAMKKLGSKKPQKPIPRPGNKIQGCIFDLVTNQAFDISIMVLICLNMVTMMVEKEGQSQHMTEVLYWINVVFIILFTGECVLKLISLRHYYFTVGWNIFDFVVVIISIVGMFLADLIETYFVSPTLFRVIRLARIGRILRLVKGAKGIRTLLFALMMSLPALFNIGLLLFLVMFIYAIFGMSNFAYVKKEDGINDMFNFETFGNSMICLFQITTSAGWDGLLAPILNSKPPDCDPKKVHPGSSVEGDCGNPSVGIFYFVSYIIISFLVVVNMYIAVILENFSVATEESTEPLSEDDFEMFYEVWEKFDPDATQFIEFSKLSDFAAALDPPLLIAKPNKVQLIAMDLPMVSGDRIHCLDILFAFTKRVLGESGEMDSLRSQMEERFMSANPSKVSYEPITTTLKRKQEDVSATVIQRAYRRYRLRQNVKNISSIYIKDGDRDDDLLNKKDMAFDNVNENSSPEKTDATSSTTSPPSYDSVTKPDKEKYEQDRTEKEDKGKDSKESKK

[6] = by Baseline RCS, first subgroup (RCS category not given)
[7] = by Baseline RCS, second subgroup (r96-r180, RCS category not given)

Row | Structure (SMILES) | Average Duration of Weekly RP Attacks (All Attacks), Baseline, Mean ([1]; Excluding Outliers) [min] | Average Duration of Weekly RP Attacks (All Attacks), Baseline, Median ([1]; Excluding Outliers) [min] | Average Duration of Weekly RP Attacks (All Attacks), Baseline, Mean [1] [min] | Average Duration of Weekly RP Attacks (All Attacks), Baseline, Median [1] [min] | Average Duration of Weekly RP Attacks (All Attacks), Baseline, Mean [1, 6] [min] | Average Duration of Weekly RP Attacks (All Attacks), Baseline, Median [1, 6] [min] | other results
1 | COCCOC(=O)C1=C(C)NC(C)=C(C(=O)OC/C=C/c2ccccc2)C1c1cccc([N+](=O)[O-])c1 (stereo not drawn) [Cilnidipine 10 mg] | 40.00 | 40.00 | 40.00 | 40.00 | 40.00 | 40.00 | –
2 | COCCOC(=O)C1=C(C)NC(C)=C(C(=O)OC/C=C/c2ccccc2)C1c1cccc([N+](=O)[O-])c1 (stereo not drawn) [Cilnidipine 20 mg] | 17.81 | 17.81 | 17.81 | 17.81 | 17.81 | 17.81 | –
3 | COCCOC(=O)C1=C(C)NC(C)=C(C(=O)OC/C=C/c2ccccc2)C1c1cccc([N+](=O)[O-])c1 (stereo not drawn) [Cilnidipine, cilnidipine, reference compound] | – | – | – | – | – | – | patients in whom average frequency of Raynaud's attacks decreased more than 25% ([2]; all cilnidipine and cilnidipine plus tadalafil treated patients together (n=7)): 6 of 7; change in weekly frequency of Raynaud attacks (in words) ([2]; cilnidipine and cilnidipine plus tadalafil treated patients (n=7), tadalafil alone, milder and more severe disease): decrease; change in duration of Raynaud attacks (in words) ([1]; cilnidipine or cilnidipine plus tadalafil (n=7), tadalafil monotherapy (n=2)): decrease greater than that seen in placebo treated patients; Average Severity of Weekly Symptomatic RP Attacks, Mean ([3]; Excluding Outliers): 3.40; Average Severity of Weekly Symptomatic RP Attacks, Mean [3]: 3.40; change in severity of attacks (in words) ([3]; cilnidipine monotherapy (n=3), cilnidipine plus tadalafil (n=4) vs tadalafil monotherapy (n=2)): 20 mg reducing severity more than 10 mg; Tmax (time to achieve maximal plasma concentrations) [4]: 2 h; activity against the Nav 1.7 sodium channel [5]: has activity
4 | COCCOC(=O)C1=C(C)NC(C)=C(C(=O)OC/C=C/c2ccccc2)C1c1cccc([N+](=O)[O-])c1 (stereo not drawn) [Pooled Cilnidipine] | 25.21 | 25.00 | – | – | 25.21 | 25.00 | Average Duration of Weekly RP Attacks (All Attacks), Average Duration, Mean ([1]; Excluding Outliers): 21.66 min; Average Duration of Weekly RP Attacks (All Attacks), Average Duration, Median ([1]; Excluding Outliers): 30.45 min; Average Duration of Weekly RP Attacks (All Attacks), Average Duration, Mean [1, 6]: 21.66 min; Average Duration of Weekly RP Attacks (All Attacks), Average Duration, Median [1, 6]: 30.45 min
5 | CN1CC(=O)N2[C@H](c3ccc4c(c3)OCO4)c3[nH]c4ccccc4c3C[C@@H]2C1=O [Tadalafil 5 mg] | 10.92 | 10.92 | – | – | – | – | Average Duration of Weekly RP Attacks (All Attacks), Baseline, Mean [1, 7]: 320.46 min; Average Duration of Weekly RP Attacks (All Attacks), Baseline, Median [1, 7]: 320.46 min
6 | CCOC(=O)C1=C(COCCN)NC(C)=C(C(=O)OC)C1c1ccccc1Cl (stereo not drawn) [amlodipine] | – | – | – | – | – | – | time to reach maximal plasma concentrations [4]: 10 h
